Experimental data published in patent US20210238169A1, “PROCESS FOR PREPARING A COMPOUND OF FORMULA (XIII)” (PULMOCIDE LIMITED, priority 2014, published 2021).
Values after ≈ are worked out from the molar mass of the structure shown. Like-named read-outs stand apart in the source and are kept apart here.

Experiments:
Candida albicans = experiment: Fungus panel screening, CLSI broth microdilution; type: cell-based; details: for MIC50 / MIC: Candida albicans; for MIC: read-out: MIC100
Method: (§1) Fungus panel screening was conducted by Eurofins Panlabs Inc. The MIC and MIC50 values of the test articles were determined following the guidelines of the Clinical and Laboratory Standards Institute, broth microdilution methods for yeast (CLSI M27-A2), (CLSI, 2002) and for filamentous fungi (CLSI M38-A), (CLSI, 2008).

Rhizopus oryzae = experiment: Fungus panel screening, CLSI broth microdilution; type: cell-based; details: Rhizopus arrhizus, strain ATCC11145, visual inspection (CLSI); for MIC: read-out: MIC100
Method: as §1

Candida glabrata = experiment: Fungus panel screening, CLSI broth microdilution; type: cell-based; details: Nakaseomyces glabratus; for MIC: read-out: MIC100
Method: as §1

Chaetomium globosum = experiment: Fungus panel screening, CLSI broth microdilution; type: cell-based; details: strain ATCC44699, visual inspection (CLSI); for MIC: read-out: MIC100
Method: as §1

Trichophyton rubrum = experiment: Fungus panel screening, CLSI broth microdilution; type: cell-based; details: strain ATCC10218, visual inspection (CLSI); for MIC: read-out: MIC100
Method: as §1

Penicillium chrysogenum = experiment: Fungus panel screening, CLSI broth microdilution; type: cell-based; details: strain ATCC9480, visual inspection (CLSI); for MIC: read-out: MIC100
Method: as §1

Aspergillus fumigatus = Aspergillus fumigatus infection of BEAS2B bronchial epithelial cells (GM in supernatant); type: cell-based
Method: BEAS2B cells were seeded in 96-well plates (100 μL; 30,000 cells/well; Catalogue No 3596, Sigma Aldrich, Dorset, UK) in 10% FBS RPMI-1640 and were then incubated (37° C., 5% CO2) for one day before experimentation. Test compounds (0.5 μL DMSO solution) or vehicle (DMSO) were added to each well to give a final DMSO concentration of 0.5%. BEAS2B cells were incubated with test compounds for 1 hr (35° C., 5% CO2) before infection with Aspergillus fumigatus (20 μL; Public Health England) conidia suspension (0.5×10^5/ml in 10% FBS RPMI-1640). The plate was incubated for 24 hr (35° C., 5% CO2). Supernatant (50 μL) was collected and transferred to a PCR plate (Catalogue No L1402-9700, Starlab, Milton Keynes, UK), which was frozen (−20° C.) until use. After thawing, supernatant (5 μL) was diluted 1:20 by adding R7-PBS solution (95 μL; 1:4 R7 to PBS; Bio-Rad Laboratories, Redmond, Wash., USA). GM levels in these samples (50 μL) were measured using Platelia GM-EIA kits (Bio-Rad Laboratories, Redmond, Wash., USA). The percentage inhibition for each well was calculated and the IC50 value was calculated from the concentration-response curve generated for each test compound.

[1] = test system: Aspergillus fumigatus isolates; experiment: Broth microdilution assay of planktonic fungal growth (modified EUCAST); type: cell-based; details: Aspergillus fumigatus; isolate NCPF7100, broth microdilution; read-out: MIC75
[2] = Cell viability: resazurin assay; type: cell-based, human; details: human, n = 1-5
Method: BEAS2B cells were seeded in 384-well plates (100 μL; 3000/well/; BD Falcon, Catalogue No 353962) in RPMI-LHC8 (RPMI-1640 and LHC8 media combined in equal proportions) one day before experimentation. For cell-free control wells, RPMI-LHC8 (100 μL) was added. Test compounds (0.5 μL of a DMSO solution) were added to give a final DMSO concentration of 0.5% using an Integra VIAFLO 96 (Integra, Zizers, Switzerland). BEAS2B cells were incubated with each test compound for 1 day (37° C./5% CO2 in RPMI-LHC8). After addition of resazurin stock solution (5 μL, 0.04%) the plates were incubated for a further 4 hr (37° C./5% CO2). The fluorescence of each well at 545 nm (excitation) and 590 nm (emission) was determined using a multi-scanner (Clariostar: BMG Labtech). The percentage loss of cell viability was calculated for each well relative to vehicle (0.5% DMSO) treatment. Where appropriate, a CC50 value was calculated from the concentration-response curve generated from the concentration-response curve for each test compound.

[3] = Fungus panel screening, CLSI broth microdilution; type: cell-based, Aspergillus pullulans; details: Aspergillus
Method: as §1

[4] = test system: Aspergillus fumigatus (NCPF2010); experiment: Resazurin-microtitre assay of planktonic fungal growth; type: cell-based; details: Aspergillus fumigatus; for MIC: read-out: Planktonic fungal growth MIC75
Method: This assay was conducted using a modified, published method (Monteiro et al., 2012). Spores of Aspergillus fumigatus (NCPF2010, Public Health England, Wiltshire) were cultured in Sabouraud dextrose agar for 3 days. A stock spore suspension was prepared from a Sabouraud dextrose agar culture by washing with PBS-tween (10 mL; PBS containing 0.05% Tween-20, 100 U/mL Penicillin and 100 U/mL Streptomycin). The spore count was assessed using a Neubauer haemocytometer and, using PBS, adjusted to 10^6 spores/mL. A working suspension of spores (10^4 spores/mL) was prepared in filter sterilised MOPS RPMI-1640 (50 mL; RPMI-1640 containing 2 mM L-glutamine, 2% glucose and 0.165 M MOPS, buffered to pH 7 with NaOH). Resazurin sodium salt (100 μL of 1% solution; Sigma-Aldrich, Dorset, UK) was added to the spore suspension and mixed well. The spore suspension-resazurin mixture (100 μL/well) was added to 384-well plates (Catalogue number 353962, BD Falcon, Oxford, UK). Simultaneously, test compounds (0.5 μL DMSO solution) were added to 100 μL of the spore-resazurin mixture in quadruplicate to provide a final DMSO solution of 0.5% using an Integra VIAFLO 96 (Intergra, Zizers, Switzerland). For non-spore control wells, MOPS-RPMI-resazurin solution (100 μL) was added instead of the spore-resazurin mixture. The plate was covered with a Breathe Easier membrane (Catalogue No Z763624, Sigma-Aldrich, Dorset, UK), and incubated (35° C., 5% CO2) until fluorescence in the inoculated wells was double that of the control wells (around 24 hr). The fluorescence of each well (545 nm (excitation)/590 nm (emission), gain 800, focal height 5.5 mm) was determined using a multi-scanner (Clariostar: BMG, Buckinghamshire, UK). The percentage inhibition for each well was calculated and the MIC50, MIC75 and MIC90 values were calculated from the concentration-response curve generated for each test compound.

[5] = ATCC10231, strain ATCC10231, visual inspection (CLSI)
[6] = strain 20183.073, visual inspection (CLSI)
[7] = strain 20186.025, visual inspection (CLSI)
[8] = strain 20240.047, visual inspection (CLSI)
[9] = strain ATCC10231, visual inspection (CLSI)
[10] = strain ATCC36583, visual inspection (CLSI)
[11] = strain R363, visual inspection (CLSI)
[12] = strain ATCC9348, visual inspection (CLSI), read-out: MIC50
[13] = strain ATCC9348, visual inspection (CLSI), read-out: MIC100

SMILES | MIC50 (Candida albicans; [5]) | MIC50 (Candida albicans; [6]) | MIC50 (Candida albicans; [7]) | MIC50 (Candida albicans; [8]) | MIC (Candida albicans; [8]) | MIC (Candida albicans; [9]) | MIC50 (Rhizopus oryzae) | MIC (Rhizopus oryzae) | MIC50 (Candida glabrata; [10]) | MIC (Candida glabrata; [10]) | MIC50 (Candida glabrata; [11]) | MIC (Candida glabrata; [11]) | MIC50 (Chaetomium globosum) | MIC (Chaetomium globosum) | MIC50 (Trichophyton rubrum) | MIC (Trichophyton rubrum) | MIC50 (Penicillium chrysogenum) | MIC (Penicillium chrysogenum) | MIC50 (Aspergillus fumigatus) | MIC [1] | also measured
CC[C@@H]([C@H](C)O)n1ncn(-c2ccc(N3CCN(c4ccc(OC[C@@H]5CO[C@@](Cn6cncn6)(c6ccc(F)cc6F)C5)cc4)CC3)cc2)c1=O [Posaconazole] | 0.13 µg/mL (≈ 0.186 µM) | 0.25 µg/mL (≈ 0.357 µM) | > 8 µg/mL | 0.031 µg/mL (≈ 0.0442 µM) | > 8 µg/mL | > 8 µg/mL | 0.13 µg/mL (≈ 0.186 µM) | > 8 µg/mL | 0.5 µg/mL (≈ 0.713 µM) | > 8 µg/mL | 0.5 µg/mL (≈ 0.713 µM) | > 8 µg/mL | 0.13 µg/mL (≈ 0.186 µM) | 0.25 µg/mL (≈ 0.357 µM) | < 0.008 µg/mL | 0.031 µg/mL (≈ 0.0442 µM) | 0.063 µg/mL (≈ 0.0899 µM) | 0.13 µg/mL (≈ 0.186 µM) | 0.00448 µM (≈ 3.14 ng/mL) | 0.0715 µM (≈ 50.1 ng/mL) | MIC100 (Candida albicans; [7]): >8.0 µg/mL; CC50 at 1 day ([2]; BEAS2B cells): > 14.3 µM; MIC50 [3, 12]: 0.25 µg/mL (≈ 0.357 µM); MIC [3, 13]: 1 µg/mL (≈ 1.43 µM); MIC50 [4]: 0.00364 µM (≈ 2.55 ng/mL); MIC [4]: 0.00694 µM (≈ 4.86 ng/mL)
Cc1cc(N2CCN(c3ccc(C(=O)Nc4ccc(F)cc4)cc3)CC2)ccc1OC[C@@H]1CO[C@@](Cn2cncn2)(c2ccc(F)cc2F)C1 [Compound (I), 4-(4-(4-(((3R,5R)-5-((1H-1,2,4-triazol-1-yl)methyl)-5-(2,4-difluorophenyl)tetrahydrofuran-3-yl)methoxy)-3-methylphenyl)piperazin-1-yl)-N-(4-fluorophenyl)benzamide] | 0.13 µg/mL (≈ 0.19 µM) | 0.5 µg/mL (≈ 0.732 µM) | > 8 µg/mL | 0.031 µg/mL (≈ 0.0454 µM) | > 8 µg/mL | > 8 µg/mL | 0.063 µg/mL (≈ 0.0923 µM) | 2 µg/mL (≈ 2.93 µM) | 0.5 µg/mL (≈ 0.732 µM) | > 8 µg/mL | 0.5 µg/mL (≈ 0.732 µM) | > 8 µg/mL | 0.063 µg/mL (≈ 0.0923 µM) | > 8 µg/mL | < 0.008 µg/mL | 0.031 µg/mL (≈ 0.0454 µM) | 0.031 µg/mL (≈ 0.0454 µM) | > 8 µg/mL | 0.00543 µM (≈ 3.71 ng/mL) | 0.0197 µM (≈ 13.5 ng/mL) | CC50 at 1 day ([2]; BEAS2B cells): > 12.2 µM; MIC50 [3, 12]: > 8 µg/mL; MIC [3, 13]: > 8 µg/mL; MIC50 [4]: 0.00198 µM (≈ 1.35 ng/mL); MIC [4]: 0.00502 µM (≈ 3.43 ng/mL)
C[C@@H](c1ncncc1F)[C@](O)(Cn1cncn1)c1ccc(F)cc1F [Voriconazole] | 0.25 µg/mL (≈ 0.716 µM) | 4 µg/mL (≈ 11.5 µM) | > 8 µg/mL | 0.031 µg/mL (≈ 0.0887 µM) | > 8 µg/mL | > 8 µg/mL | 8 µg/mL (≈ 22.9 µM) | > 8 µg/mL | 0.25 µg/mL (≈ 0.716 µM) | > 8 µg/mL | > 8 µg/mL | > 8 µg/mL | 0.5 µg/mL (≈ 1.43 µM) | 1 µg/mL (≈ 2.86 µM) | < 0.008 µg/mL | 0.063 µg/mL (≈ 0.18 µM) | 1 µg/mL (≈ 2.86 µM) | 2 µg/mL (≈ 5.73 µM) | 0.154 µM (≈ 53.8 ng/mL) | 0.596 µM (≈ 208 ng/mL) | MIC100 (Candida albicans; [7]): >8.0 µg/mL; CC50 at 1 day ([2]; read-out: BEAS2B Cell Viability CC50): > 28.6 µM; MIC50 ([3]; ATCC9348): > 8 µg/mL; MIC ([3]; ATCC9348, read-out: MIC100): > 8 µg/mL; MIC50 [4]: 0.0908 µM (≈ 31.7 ng/mL); MIC [4]: 0.168 µM (≈ 58.7 ng/mL)
